The values that follow come from EPA's aquatic toxicity sets.

One data set deals with Pimephales promelas. The data set is described as follows: 96 h LC50 (-log10 mol/L); higher = more toxic.
The next data set relates to Tetrahymena pyriformis. Briefly: 48 h IGC50 (-log10 mol/L); higher = more toxic.

Each structure is given as a SMILES string.

Consider `CN(C)c1ccc(/C=C/C=O)cc1`, for which the “96 h LC50 (-log10 mol/L)” value in the data set with Pimephales promelas was found to be 4.47. Further, the “48 h IGC50 (-log10 mol/L)” value with Tetrahymena pyriformis was 3.52.
On to `O=[N+]([O-])c1cccc(Cl)c1`, for which the “96 h LC50 (-log10 mol/L)” value in the data set on Pimephales promelas came to 3.93. Besides, the “48 h IGC50 (-log10 mol/L)” value in the data set on Tetrahymena pyriformis was determined as 3.73.
For the compound `CC(=O)CC(=O)c1ccccc1`, the “96 h LC50 (-log10 mol/L)” value in the data set with Pimephales promelas was determined as 5.17. Further, the “48 h IGC50 (-log10 mol/L)” value in the data set with Tetrahymena pyriformis came to 3.57.
Take `CCCCCCBr`: the “96 h LC50 (-log10 mol/L)” value in the data set on Pimephales promelas amounted to 4.68. In the data set with Tetrahymena pyriformis, the “48 h IGC50 (-log10 mol/L)” value turned out to be 3.94.
Take `C#CCO`: in the data set on Pimephales promelas, the “96 h LC50 (-log10 mol/L)” value amounted to 4.56. Moreover, the “48 h IGC50 (-log10 mol/L)” value with Tetrahymena pyriformis worked out at 1.93.
As to `COC(=O)c1ccc(Cl)cc1[N+](=O)[O-]`, the “96 h LC50 (-log10 mol/L)” value in the data set with Pimephales promelas came to 3.9. In the data set with Tetrahymena pyriformis, the “48 h IGC50 (-log10 mol/L)” value was determined as 3.82.
On to `C=CC(=O)OC1CCCCC1`, for which the “96 h LC50 (-log10 mol/L)” value in the data set with Pimephales promelas turned out to be 5.02. Further, the “48 h IGC50 (-log10 mol/L)” value in the data set with Tetrahymena pyriformis worked out at 3.76.
In the same order, the values of `CCCCC(CC)CO` (stereo unspecified) are 3.66 and 3.17.
For the compound `Oc1c(Br)cc(Br)cc1Br`, the “96 h LC50 (-log10 mol/L)” value with Pimephales promelas came to 4.71. Besides, the “48 h IGC50 (-log10 mol/L)” value in the data set on Tetrahymena pyriformis is 4.91.
With `CCCCCc1ccccc1`, the “96 h LC50 (-log10 mol/L)” value in the data set on Pimephales promelas amounted to 4.94. In addition, the “48 h IGC50 (-log10 mol/L)” value with Tetrahymena pyriformis came to 4.79.
On to `CCCC(C)=O`, for which, in the data set on Pimephales promelas, the “96 h LC50 (-log10 mol/L)” value amounted to 1.84. Moreover, in the data set with Tetrahymena pyriformis, the “48 h IGC50 (-log10 mol/L)” value was determined as 1.78.
As for `O=Cc1ccc(Oc2ccccc2)cc1`, the “96 h LC50 (-log10 mol/L)” value with Pimephales promelas worked out at 4.63. Besides, the “48 h IGC50 (-log10 mol/L)” value in the data set on Tetrahymena pyriformis was 4.26.
`Cc1ccc(C)o1`: the “96 h LC50 (-log10 mol/L)” value in the data set on Pimephales promelas was found to be 3.13. For the same compound, the “48 h IGC50 (-log10 mol/L)” value in the data set on Tetrahymena pyriformis was 2.52.
For `c1ccoc1`, the “96 h LC50 (-log10 mol/L)” value in the data set on Pimephales promelas came to 3.05. Besides, in the data set with Tetrahymena pyriformis, the “48 h IGC50 (-log10 mol/L)” value stood at 1.35.
The like results for `O=Cc1cc(Cl)ccc1O` were, in that order, 5.31 and 4.01.
Turning to `CC(C)CC=O`, the “96 h LC50 (-log10 mol/L)” value in the data set with Pimephales promelas came out at 4.42. The “48 h IGC50 (-log10 mol/L)” value in the data set with Tetrahymena pyriformis turned out to be 2.67.
As for `CCOC(=O)CCCCC(=O)OCC`, the “96 h LC50 (-log10 mol/L)” value with Pimephales promelas amounted to 4.05. Also, the “48 h IGC50 (-log10 mol/L)” value in the data set on Tetrahymena pyriformis stood at 2.87.
For `CCCCCCCCCC(C)=O`, the “96 h LC50 (-log10 mol/L)” value in the data set on Pimephales promelas came to 5.05. Also, the “48 h IGC50 (-log10 mol/L)” value in the data set with Tetrahymena pyriformis came out at 4.54.
Regarding `CC(=O)c1ccccc1`, the “96 h LC50 (-log10 mol/L)” value in the data set on Pimephales promelas stood at 2.87. Further, the “48 h IGC50 (-log10 mol/L)” value in the data set with Tetrahymena pyriformis came to 2.54.
As to `CC(O)CCl` (stereo unspecified), in the data set on Pimephales promelas, the “96 h LC50 (-log10 mol/L)” value stood at 2.59. Besides, in the data set with Tetrahymena pyriformis, the “48 h IGC50 (-log10 mol/L)” value turned out to be 1.51.
For `CC(=O)C(C)(C)C`, the “96 h LC50 (-log10 mol/L)” value in the data set with Pimephales promelas is 3.06. In addition, the “48 h IGC50 (-log10 mol/L)” value in the data set with Tetrahymena pyriformis amounted to 1.56.
The like results for `c1ccc2ncccc2c1` were, in that order, 3.45 and 3.09.
With `OCC(Cl)(Cl)Cl`, the “96 h LC50 (-log10 mol/L)” value with Pimephales promelas turned out to be 2.82. The “48 h IGC50 (-log10 mol/L)” value in the data set on Tetrahymena pyriformis came out at 2.54.
As for `COC(C)=O`, the “96 h LC50 (-log10 mol/L)” value with Pimephales promelas was found to be 2.27. Further, the “48 h IGC50 (-log10 mol/L)” value with Tetrahymena pyriformis is 1.41.
The like results for `O=[N+]([O-])c1ccc(Oc2ccccc2)cc1` were, in that order, 4.91 and 4.58.
Turning to `N#Cc1ccccn1`, the “96 h LC50 (-log10 mol/L)” value in the data set with Pimephales promelas came out at 2.16. In the data set with Tetrahymena pyriformis, the “48 h IGC50 (-log10 mol/L)” value came out at 2.17.
For the compound `N#CC(Br)Br`, in the data set with Pimephales promelas, the “96 h LC50 (-log10 mol/L)” value was determined as 5.56. In addition, the “48 h IGC50 (-log10 mol/L)” value with Tetrahymena pyriformis is 5.4.
As to `C=CCOC(=O)C(=C)C`, in the data set with Pimephales promelas, the “96 h LC50 (-log10 mol/L)” value stood at 5.11. The “48 h IGC50 (-log10 mol/L)” value in the data set with Tetrahymena pyriformis is 2.32.
With `O=Cc1ccc(Cl)cc1`, the “96 h LC50 (-log10 mol/L)” value in the data set with Pimephales promelas turned out to be 4.8. The “48 h IGC50 (-log10 mol/L)” value with Tetrahymena pyriformis came out at 3.4.
On to `NC(=O)c1ccccc1N`, for which the “96 h LC50 (-log10 mol/L)” value in the data set with Pimephales promelas is 2.54. Moreover, in the data set with Tetrahymena pyriformis, the “48 h IGC50 (-log10 mol/L)” value was determined as 2.13.
With `C=CC(=O)OCC`, the “96 h LC50 (-log10 mol/L)” value in the data set on Pimephales promelas was 4.6. Also, the “48 h IGC50 (-log10 mol/L)” value in the data set with Tetrahymena pyriformis is 3.52.
The like results for `CCCCC(C)=O` were, in that order, 2.37 and 1.66.
Consider `CC(C)(C)c1cc(C(C)(C)C)c(O)c(C(C)(C)C)c1`, for which, in the data set on Pimephales promelas, the “96 h LC50 (-log10 mol/L)” value is 6.63. Further, the “48 h IGC50 (-log10 mol/L)” value in the data set on Tetrahymena pyriformis worked out at 3.36.
Turning to `Cc1ccncc1`, in the data set with Pimephales promelas, the “96 h LC50 (-log10 mol/L)” value is 2.36. Further, in the data set with Tetrahymena pyriformis, the “48 h IGC50 (-log10 mol/L)” value came to 2.12.
In the case of `CC1(C)OCC(CO)O1` (stereo unspecified), the “96 h LC50 (-log10 mol/L)” value with Pimephales promelas stood at 0.898. For the same compound, the “48 h IGC50 (-log10 mol/L)” value in the data set with Tetrahymena pyriformis was determined as 1.21.
In the case of `CCCCCCCCC(C)=O`, the “96 h LC50 (-log10 mol/L)” value in the data set on Pimephales promelas amounted to 4.51. The “48 h IGC50 (-log10 mol/L)” value in the data set on Tetrahymena pyriformis was determined as 3.58.
As for `O=C(c1ccc(Br)cc1)c1cccnc1`, in the data set on Pimephales promelas, the “96 h LC50 (-log10 mol/L)” value is 4.11. In addition, in the data set with Tetrahymena pyriformis, the “48 h IGC50 (-log10 mol/L)” value came to 3.82.
Take `CCCCCCCCc1ccc(N)cc1`: the “96 h LC50 (-log10 mol/L)” value in the data set on Pimephales promelas is 6.23. The “48 h IGC50 (-log10 mol/L)” value in the data set with Tetrahymena pyriformis stood at 5.43.
For the compound `ClC(Cl)(Cl)Cl`, in the data set with Pimephales promelas, the “96 h LC50 (-log10 mol/L)” value worked out at 3.57. In addition, in the data set on Tetrahymena pyriformis, the “48 h IGC50 (-log10 mol/L)” value stood at 2.98.
In the same order, the values of `COc1ccc(C(C)=O)c(O)c1` are 3.38 and 3.55.
On to `CCC(C)N` (stereo unspecified), for which the “96 h LC50 (-log10 mol/L)” value with Pimephales promelas was 2.42. Besides, the “48 h IGC50 (-log10 mol/L)” value in the data set on Tetrahymena pyriformis stood at 2.33.
On to `Nc1ccc(F)cc1`, for which the “96 h LC50 (-log10 mol/L)” value in the data set on Pimephales promelas amounted to 3.82. Moreover, the “48 h IGC50 (-log10 mol/L)” value with Tetrahymena pyriformis was found to be 3.59.
`CCOc1cc(C=O)ccc1O`: in the data set on Pimephales promelas, the “96 h LC50 (-log10 mol/L)” value is 3.28. Moreover, in the data set with Tetrahymena pyriformis, the “48 h IGC50 (-log10 mol/L)” value is 3.02.
